Assay results taken from publication PMC9229949 (Pharmaceutics, 2022).

How the values were obtained:
[1] = target: T1, S. mansoni thioredoxin-glutathione reductase (SmTGR) (Schistosoma mansoni, UniProt Q962Y6); test: Inhibition of enzymatic activity of recombinant S. mansoni thioredoxin glutathione reductase; type: biochemical; details: 15 min preincubation, mean of one experiment, read-out: IC50 for TrxRs, S. mansoni (Sec)
T1 construct: made in house
T1 sequence (Q962Y6 1-598): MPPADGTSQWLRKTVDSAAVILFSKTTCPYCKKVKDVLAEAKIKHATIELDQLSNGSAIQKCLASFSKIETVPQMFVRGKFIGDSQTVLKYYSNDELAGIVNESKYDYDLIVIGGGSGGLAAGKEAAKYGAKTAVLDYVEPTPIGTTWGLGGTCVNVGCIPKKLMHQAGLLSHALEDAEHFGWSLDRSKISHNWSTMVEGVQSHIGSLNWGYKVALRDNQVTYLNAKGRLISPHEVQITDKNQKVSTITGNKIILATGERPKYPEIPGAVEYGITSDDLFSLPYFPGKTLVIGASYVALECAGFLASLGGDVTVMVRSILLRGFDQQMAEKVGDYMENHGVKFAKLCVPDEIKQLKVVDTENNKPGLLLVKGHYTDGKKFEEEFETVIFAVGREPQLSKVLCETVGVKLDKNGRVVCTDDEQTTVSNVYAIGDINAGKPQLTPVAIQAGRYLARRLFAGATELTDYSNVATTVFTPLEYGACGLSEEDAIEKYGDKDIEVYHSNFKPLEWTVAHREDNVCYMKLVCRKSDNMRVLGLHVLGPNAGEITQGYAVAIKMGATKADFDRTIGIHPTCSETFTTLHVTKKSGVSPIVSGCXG
Procedure: (§1) The codon-optimized sequence for PfTrxR [27, 28] was synthesized and subcloned into pET-15b (Genscript) and expressed and purified as for human glutathione reductase (hGR). Recombinant Schistosoma mansoni (S. mansoni) thioredoxin glutathione reductase (SmTGR), human TrxR (hTrxR), and hGR proteins were expressed and purified as described. TrxR and TGR enzyme inhibition assays were performed in triplicate at 25 °C in 0.1 M potassium phosphate (pH 7.4), 10 mM EDTA, 100 µM NADPH and 0.01% Tween-20. SmTGR (4 nM), hTrxR (4 nM), and PfTrxR (50 nM) were preincubated with the compounds for 15 min. The reaction was started with addition of an equal volume of 5,5′-dithiobis(2-nitrobenzoic acid) (6 mM) and NADPH (100 µM). The increase in A412 during the first 3 min was recorded. […]. The reactions were performed in triplicate. The IC50s were calculated in Prism version 5.01.

PfTrxR = target: T2, PfTrxR (Plasmodium falciparum, UniProt Q25861); test: Inhibition of enzymatic activity of recombinant P. falciparum TrxR; type: biochemical; details: recombinant enzyme, 15 min preincubation; mean of one experiment; read-out: IC50 for TrxRs, P. falciparum (Cys)
T2 construct: made in house
T2 sequence (Q25861 1-541): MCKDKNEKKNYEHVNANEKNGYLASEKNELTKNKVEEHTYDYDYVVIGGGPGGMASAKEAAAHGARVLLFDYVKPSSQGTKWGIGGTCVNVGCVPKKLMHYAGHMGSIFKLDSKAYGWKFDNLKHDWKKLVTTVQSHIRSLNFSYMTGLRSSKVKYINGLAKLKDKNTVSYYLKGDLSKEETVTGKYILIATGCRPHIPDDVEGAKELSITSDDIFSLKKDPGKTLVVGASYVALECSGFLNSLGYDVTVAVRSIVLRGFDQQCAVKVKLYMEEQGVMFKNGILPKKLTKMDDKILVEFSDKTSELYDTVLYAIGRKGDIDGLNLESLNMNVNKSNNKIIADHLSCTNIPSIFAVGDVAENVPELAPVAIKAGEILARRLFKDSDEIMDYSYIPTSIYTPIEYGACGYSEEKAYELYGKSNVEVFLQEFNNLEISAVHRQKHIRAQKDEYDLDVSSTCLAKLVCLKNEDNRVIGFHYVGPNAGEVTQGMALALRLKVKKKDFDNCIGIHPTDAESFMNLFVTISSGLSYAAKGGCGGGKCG
Procedure: as §1

human TrxR (hTrxR) = target: T3, human TrxR (hTrxR) (Homo sapiens, UniProt Q16881); test: Inhibition of enzymatic activity of recombinant human TrxR; type: biochemical; details: recombinant enzyme, 15 min preincubation; mean of one experiment; read-out: IC50 for TrxRs, Human (Sec)
T3 construct: made in house
T3 sequence (Q16881 151-649 limits assumed): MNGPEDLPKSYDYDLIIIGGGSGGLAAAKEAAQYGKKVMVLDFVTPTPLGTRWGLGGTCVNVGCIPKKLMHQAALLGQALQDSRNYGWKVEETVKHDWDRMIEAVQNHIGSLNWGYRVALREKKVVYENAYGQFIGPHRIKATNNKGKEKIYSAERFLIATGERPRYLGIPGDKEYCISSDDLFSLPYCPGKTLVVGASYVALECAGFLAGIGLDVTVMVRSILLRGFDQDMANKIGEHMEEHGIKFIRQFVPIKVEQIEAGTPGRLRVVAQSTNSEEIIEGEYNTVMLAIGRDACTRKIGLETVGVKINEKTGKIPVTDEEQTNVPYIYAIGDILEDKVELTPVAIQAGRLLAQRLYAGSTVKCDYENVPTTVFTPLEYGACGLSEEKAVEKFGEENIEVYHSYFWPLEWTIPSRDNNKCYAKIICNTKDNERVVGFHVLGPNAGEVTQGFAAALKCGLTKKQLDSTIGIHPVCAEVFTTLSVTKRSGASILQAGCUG
Procedure: as §1

[2] = target: T4, human glutathione reductase (hGR) (Homo sapiens, UniProt P00390); test: Inhibition of enzymatic activity of recombinant human glutathione reductase; type: biochemical; details: recombinant enzyme, 15 min preincubation; mean of one experiment; read-out: IC50, Human GR
T4 construct: made in house
T4 sequence (P00390 44-522): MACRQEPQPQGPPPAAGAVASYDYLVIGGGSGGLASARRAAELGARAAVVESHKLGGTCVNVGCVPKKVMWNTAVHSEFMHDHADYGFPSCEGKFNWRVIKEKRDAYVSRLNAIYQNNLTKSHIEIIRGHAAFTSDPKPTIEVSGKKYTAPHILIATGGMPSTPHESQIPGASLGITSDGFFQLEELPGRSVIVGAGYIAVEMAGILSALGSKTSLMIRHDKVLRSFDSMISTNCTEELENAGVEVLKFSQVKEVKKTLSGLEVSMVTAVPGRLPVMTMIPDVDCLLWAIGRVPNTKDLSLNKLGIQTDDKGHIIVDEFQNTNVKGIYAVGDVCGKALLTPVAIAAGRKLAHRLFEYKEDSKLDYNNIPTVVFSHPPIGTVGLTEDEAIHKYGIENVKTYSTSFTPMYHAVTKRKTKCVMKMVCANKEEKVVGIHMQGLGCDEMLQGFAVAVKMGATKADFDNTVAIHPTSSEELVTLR
Procedure: as §1

[3] = test system: P. falciparum 3D7 (CQ-susceptible) asexual blood stages; design: method as in PMID 29465117; details: in vitro antiplasmodial activity; read-out: P. falciparum 3D7 (Cell Based Activity), IC50; cited from earlier work

SMILES: CC(=O)OC[C@H]1O[C@@H]([S-])[C@H](OC(C)=O)[C@@H](OC(C)=O)[C@@H]1OC(C)=O.CCP(CC)CC.[Au+] [Auranofin, auranofin]
- IC50 [1]: 7 nM
- IC50 (PfTrxR): 62 nM
- IC50 (human TrxR (hTrxR)): 20 nM
- IC50 [2]: 40000 nM
- IC50 [3]: 60 nM
